The source of these data is ChEMBL document CHEMBL3994622, “Design and synthesis of new RAF kinase-inhibiting antiproliferative quinoline derivatives. Part 2: Diarylurea derivatives” (Eur J Med Chem, 2017).

Molecules are shown by their SMILES.

Experiment [1] concerns HOP-62. The experiment is described as follows: Growth inhibition of human HOP62 cells assessed as cell growth at 30 uM incubated for 48 hrs by sulforhodamine B assay relative to control. It is filed as functional. The note with it: HOP-62, 48 h, read-out: Activity. Background: The SRB assay estimates cell density from bound dye.
In the next experiment the test system is EKVX. The experiment is described as follows: Growth inhibition of human EKVX cells assessed as cell growth at 0.03 uM incubated for 48 hrs by sulforhodamine B assay relative to control. It is filed as functional. The note with it: read-out: Activity.
Experiment [2] relates to Serine/threonine-protein kinase B-raf (Homo sapiens), P15056 [V600E]. The experiment is described as follows: Inhibition of human BRAF V600E mutant at 10 uM using MEK1 as substrate in presence of [33P]ATP by Hotspot assay relative to control.
The species entered for another experiment is Homo sapiens. The experiment is described as follows: Selectivity index, ratio of IC50 for human BRAF V600E mutant to IC50 for human c-RAF.
The test system of a further experiment is NCI-H460. The experiment is described as follows: Growth inhibition of human NCI-H460 cells assessed as cell growth at 10 uM incubated for 48 hrs by sulforhodamine B assay relative to control. It is filed as functional. The note with it: NCI-H460, 48 h, read-out: Activity.
The subject of the next experiment is MDA-MB-468. The experiment is described as follows: Growth inhibition of human MDA-MB-468 cells assessed as cell growth at 3 uM incubated for 48 hrs by sulforhodamine B assay relative to control. It counts as functional. The note with it: MDA-MB-468, 48 h, read-out: Activity.
In another experiment the test system is BT-549. The experiment is described as follows: Growth inhibition of human BT549 cells assessed as cell growth at 0.5 uM incubated for 48 hrs by sulforhodamine B assay relative to control. It counts as functional. The note with it: BT-549, 48 h, read-out: Activity.
For the next experiment, the system named is OVCAR-4. The experiment is described as follows: Growth inhibition of human OVCAR4 cells assessed as cell growth at 50 uM incubated for 48 hrs by sulforhodamine B assay relative to control. It is filed as functional. The note with it: OVCAR-4, 48 h, read-out: Activity.
The next experiment has as its system SR. The experiment is described as follows: Growth inhibition of human SR cells assessed as cell growth at 0.05 uM incubated for 48 hrs by sulforhodamine B assay relative to control. The note with it: read-out: Activity. It is filed as functional.
The next experiment deals with MOLT-4. The experiment is described as follows: Growth inhibition of human MOLT4 cells assessed as cell growth at 50 uM incubated for 48 hrs by sulforhodamine B assay relative to control. It counts as functional. The note with it: MOLT-4, 48 h, read-out: Activity.
A further experiment relates to IGROV-1. The experiment is described as follows: Growth inhibition of human IGROV1 cells assessed as cell growth at 0.05 uM incubated for 48 hrs by sulforhodamine B assay relative to control. It counts as functional. The note with it: IGROV-1, 48 h, read-out: Activity.
The subject of a further experiment is HT-29. The experiment is described as follows: Growth inhibition of human HT-29 cells assessed as cell growth at 5 uM incubated for 48 hrs by sulforhodamine B assay relative to control. It is filed as functional. The note with it: HT-29, 48 h, read-out: Activity.
Another experiment concerns MDA-MB-231. The experiment is described as follows: Growth inhibition of human MDA-MB-231 cells assessed as cell growth at 5 uM incubated for 48 hrs by sulforhodamine B assay relative to control. It is filed as functional. The note with it: MDA-MB-231, 48 h, read-out: Activity.
Experiment [3] has as its system HOP-92. The experiment is described as follows: Growth inhibition of human HOP92 cells assessed as cell growth at 50 uM incubated for 48 hrs by sulforhodamine B assay relative to control. It counts as functional. The note with it: HOP-92, 48 h, read-out: Activity.
The next experiment has as its system RPMI-8226. The experiment is described as follows: Growth inhibition of human RPMI8226 cells assessed as cell growth at 5 uM incubated for 48 hrs by sulforhodamine B assay relative to control. It is filed as functional. The note with it: RPMI-8226, 48 h, read-out: Activity.
In experiment [4] the test system is M14. The experiment is described as follows: Growth inhibition of human M14 cells assessed as cell growth at 0.005 uM incubated for 48 hrs by sulforhodamine B assay relative to control. The note with it: M14, 48 h, read-out: Activity. It is filed as functional.
For another experiment, the system named is SN12C. The experiment is described as follows: Growth inhibition of human SN12C cells assessed as cell growth at 0.005 uM incubated for 48 hrs by sulforhodamine B assay relative to control. It counts as functional. The note with it: read-out: Activity.
In another experiment the test system is U-251. The experiment is described as follows: Growth inhibition of human U251 cells assessed as cell growth at 0.05 uM incubated for 48 hrs by sulforhodamine B assay relative to control. It counts as functional. The note with it: U-251, 48 h, read-out: Activity.
Experiment [5] relates to K562. The experiment is described as follows: Growth inhibition of human K562 cells assessed as cell growth at 0.5 uM incubated for 48 hrs by sulforhodamine B assay relative to control. It counts as functional. The note with it: K562, 48 h, read-out: Activity.
Another experiment deals with SK-OV-3. The experiment is described as follows: Growth inhibition of human SKOV3 cells assessed as cell growth at 50 uM incubated for 48 hrs by sulforhodamine B assay relative to control. It is filed as functional. The note with it: SK-OV-3, 48 h, read-out: Activity.
Another experiment has as its system MCF7. The experiment is described as follows: Growth inhibition of human MCF7 cells assessed as cell growth at 50 uM incubated for 48 hrs by sulforhodamine B assay relative to control. It is filed as functional. The note with it: MCF7, 48 h, read-out: Activity.
Experiment [6] has as its system HOP-62. The experiment is described as follows: Growth inhibition of human HOP62 cells assessed as cell growth at 5 uM incubated for 48 hrs by sulforhodamine B assay relative to control. It is filed as functional. The note with it: HOP-62, 48 h, read-out: Activity.
For the next experiment, the system named is NCI/ADR-RES. The experiment is described as follows: Growth inhibition of human NCI/ADR-RES cells assessed as cell growth at 0.05 uM incubated for 48 hrs by sulforhodamine B assay relative to control. It is filed as functional. The note with it: read-out: Activity.
In experiment [7] the test system is K562. The experiment is described as follows: Growth inhibition of human K562 cells assessed as cell growth at 0.005 uM incubated for 48 hrs by sulforhodamine B assay relative to control. It is filed as functional. The note with it: K562, 48 h, read-out: Activity.
In a further experiment the test system is PC-3. The experiment is described as follows: Growth inhibition of human PC3 cells assessed as cell growth at 5 uM incubated for 48 hrs by sulforhodamine B assay relative to control. It counts as functional. The note with it: PC-3, 48 h, read-out: Activity.
Another experiment relates to A498. The experiment is described as follows: Growth inhibition of human A498 cells assessed as cell growth at 0.005 uM incubated for 48 hrs by sulforhodamine B assay relative to control. The note with it: A498, 48 h, read-out: Activity. It is filed as functional.
The test system of a further experiment is OVCAR-3. The experiment is described as follows: Growth inhibition of human OVCAR3 cells assessed as cell growth at 5 uM incubated for 48 hrs by sulforhodamine B assay relative to control. It counts as functional. The note with it: OVCAR-3, 48 h, read-out: Activity.
Experiment [8] has as its system M14. The experiment is described as follows: Growth inhibition of human M14 cells assessed as cell growth at 0.05 uM incubated for 48 hrs by sulforhodamine B assay relative to control. The note with it: M14, 48 h, read-out: Activity. It is filed as functional.
Another experiment concerns SF-268. The experiment is described as follows: Growth inhibition of human SF268 cells assessed as cell growth at 5 uM incubated for 48 hrs by sulforhodamine B assay relative to control. The note with it: SF-268, 48 h, read-out: Activity. It is filed as functional.
The subject of the next experiment is OVCAR-8. The experiment is described as follows: Growth inhibition of human OVCAR8 cells assessed as cell growth at 0.5 uM incubated for 48 hrs by sulforhodamine B assay relative to control. It is filed as functional. The note with it: OVCAR-8, 48 h, read-out: Activity.
Experiment [9] deals with NCI-H522. The experiment is described as follows: Growth inhibition of human NCI-H522 cells assessed as cell growth at 0.05 uM incubated for 48 hrs by sulforhodamine B assay relative to control. It is filed as functional. The note with it: NCI-H522, 48 h, read-out: Activity.
Experiment [10] relates to HOP-92. The experiment is described as follows: Growth inhibition of human HOP92 cells assessed as cell growth at 0.5 uM incubated for 48 hrs by sulforhodamine B assay relative to control. It counts as functional. The note with it: HOP-92, 48 h, read-out: Activity.
A further experiment concerns Malme-3M. The experiment is described as follows: Growth inhibition of human MALME-3M cells assessed as cell growth at 0.05 uM incubated for 48 hrs by sulforhodamine B assay relative to control. It is filed as functional. The note with it: read-out: Activity.
Experiment [11] deals with HOP-92. The experiment is described as follows: Growth inhibition of human HOP92 cells assessed as cell growth at 5 uM incubated for 48 hrs by sulforhodamine B assay relative to control. It is filed as functional. The note with it: HOP-92, 48 h, read-out: Activity.
In experiment [12] the test system is NCI-H522. The experiment is described as follows: Growth inhibition of human NCI-H522 cells assessed as cell growth at 5 uM incubated for 48 hrs by sulforhodamine B assay relative to control. It is filed as functional. The note with it: NCI-H522, 48 h, read-out: Activity.

A word on the inhibition: it is the share of the control response that was lost under treatment.

Chain of Serine/threonine-protein kinase B-raf (Homo sapiens), P15056 [V600E] (P15056 whole entry V600E): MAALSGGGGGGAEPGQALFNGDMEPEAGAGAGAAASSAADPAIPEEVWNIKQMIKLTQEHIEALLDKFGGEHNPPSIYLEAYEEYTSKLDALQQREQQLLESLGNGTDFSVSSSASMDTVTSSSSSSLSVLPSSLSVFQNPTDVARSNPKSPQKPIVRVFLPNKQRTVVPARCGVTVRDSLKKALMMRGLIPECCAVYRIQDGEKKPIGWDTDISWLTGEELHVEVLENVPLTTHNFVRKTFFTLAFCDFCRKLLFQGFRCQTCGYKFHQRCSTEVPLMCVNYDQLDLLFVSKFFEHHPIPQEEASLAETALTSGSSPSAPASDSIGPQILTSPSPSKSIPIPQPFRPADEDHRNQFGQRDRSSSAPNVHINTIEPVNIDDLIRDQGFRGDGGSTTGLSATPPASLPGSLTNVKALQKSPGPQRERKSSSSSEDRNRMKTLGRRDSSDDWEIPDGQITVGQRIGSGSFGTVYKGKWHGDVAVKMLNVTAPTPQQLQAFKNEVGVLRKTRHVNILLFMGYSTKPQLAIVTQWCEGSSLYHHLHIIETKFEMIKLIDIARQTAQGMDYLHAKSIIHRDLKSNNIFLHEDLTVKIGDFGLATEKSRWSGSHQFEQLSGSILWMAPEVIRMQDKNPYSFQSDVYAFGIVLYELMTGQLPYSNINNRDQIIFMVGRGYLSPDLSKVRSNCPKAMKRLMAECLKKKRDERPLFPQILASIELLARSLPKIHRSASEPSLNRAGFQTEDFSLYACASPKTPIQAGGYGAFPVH

On to `COc1cc2cc(Oc3ccc(NC(=O)Nc4ccc(Cl)c(C(F)(F)F)c4)cc3)c(C)nc2cc1OC`, for which the growth at 30 µM in the experiment with HOP-62 [1] was -96%. The growth at 0.03 µM in the experiment with EKVX was 97%. In addition, the inhibition in experiment [2] is 88.9%. Further, the Ratio IC50 in the experiment filed under Homo sapiens was 2.6.
For the compound `COc1cc2cc(Oc3ccc(NC(=O)Nc4cc(C(F)(F)F)cc(C(F)(F)F)c4)cc3)c(C)nc2cc1OC`, the growth at 10 µM with NCI-H460 is -64%.
With `Cc1nc2cc(O)c(O)cc2cc1Oc1ccc(NC(=O)Nc2ccc(Cl)c(Cl)c2)cc1`, the growth at 3 µM in the experiment on MDA-MB-468 was found to be 92%.
In the case of `COc1cc2cc(Oc3ccc(NC(=O)Nc4cccc(C(F)(F)F)c4)cc3)c(C)nc2cc1OC`, the growth at 0.5 µM was 86% with BT-549, 93% in the experiment on K562 [5], 96% in the experiment on OVCAR-8 and 90% in the experiment with HOP-92 [10]. Also, the growth at 50 µM was -63% in the experiment on OVCAR-4; -22% in the experiment with MOLT-4; -74% with HOP-92 [3]; -37% with SK-OV-3; -89% with MCF7. Besides, the growth at 0.05 µM in the experiment with SR turned out to be 93%; with IGROV-1, 108%; with U-251, 99%; with NCI/ADR-RES, 101%; in the experiment with M14 [8] it was 84%; with NCI-H522 [9], 92%. Moreover, the growth at 0.05 µM with Malme-3M came to 96%. The growth at 5 µM in the experiment with HT-29 was 11%; in the experiment on MDA-MB-231 it was -7%; with RPMI-8226 it was -25%; in the experiment on HOP-62 [6] it was 25%; in the experiment on PC-3 it was 3%; in the experiment with OVCAR-3, 15%. For the same compound, the growth at 5 µM with SF-268 was 31%; with HOP-92 [11], -10%; with NCI-H522 [12] it was -4%. Also, the growth at 0.005 µM in the experiment on M14 [4] was found to be 98%; in the experiment on SN12C, 95%; in the experiment on K562 [7], 102%; with A498, 113%.
